Experimental data taken from patent US20180008718A1, “COMPOSITIONS FOR THE SUSTAINED RELEASE OF ANTI-GLAUCOMA AGENTS TO CONTROL INTRAOCULAR PRESSURE” (The Johns Hopkins University, priority 2015, published 2018).

What was measured:
[1] = In vitro drug release kinetics of ECA-L-Cysteine polyanhydride microparticles; format: physicochemical; details: accelerated infinite sink conditions at 37° C.; FIG. 1
From the text: FIG. 1 is a graph showing the release of ECA-L-cysteine (% release) as a function of time (days).

normal, C57BL/6 mice = assay: IOP lowering effect in normal mice after administration via the epischleral vein at the limbus; format: in vivo
From the text: FIG. 2A is a graph showing intraocular pressure (IOP, mmHg) as function of administration of free ECA and a control over time (days). FIG. 2B is a graph showing intraocular pressure (IOP, mmHg) as function of administration of ECA-L-cysteine particles and a control over time (days).

[2] = tested on: human patients with elevated IOP; details: intracameral administration; cited from earlier work

| time over which ECA-L-Cysteine conjugate was continually released in vitro [1] [days] | Compound | duration of the IOP lowering effect (normal, C57BL/6 mice; 1 μg drug via epischleral vein at the limbus) [days] | IOP lowering compared to the untreated control group (normal, C57BL/6 mice; 1 μg drug via epischleral vein at the limbus, FIGS. 2A and 2B) | IOP lowering effect by Day 5 (normal, C57BL/6 mice; 1 μg free drug, Day 5) | duration of IOP lowering [2] |
| --- | --- | --- | --- | --- | --- |
| 14 | CCC(CSC[C@H](N)C(=O)O)C(=O)c1ccc(OCC(=O)O)c(Cl)c1Cl (stereo partly drawn) [ECA-L-Cysteine conjugate] | – | – | – | – |
| – | C=C(CC)C(=O)c1ccc(OCC(=O)O)c(Cl)c1Cl [free ECA, ethacrynic acid] | 1 | significant lowering of IOP | gone | three |
